From patent US20250129045A1, “SMALL MOLECULE PIM AND MTOR KINASE INHIBITOR AND METHODS OF USE THEREOF” (Arizona Board of Regents on Behalf of the University of …, priority 2022, published 2025)

Key:
Assay type in all cases: cell-based
[1] = tested on: Prostate Cancer Growth; assay: SAR studies using inhibition of prostate cancer growth as a readout; settings: SAR by substituent position
[2] = tested on: mTORC; assay: Phosphorylation of mTORC substrates in PANC1 cells (Western blot); settings: overnight incubation, FIG. 19
Protocol: Immunoblotting: Western blots were performed as described previously. Briefly, protein lysates (30 μg) were subjected to SDS-PAGE and transferred to nitrocellulose membranes. After blocking with 5% milk in TBST buffer for 30 min at room temperature, the membranes were incubated overnight at 4° C. with the Indicated primary antibody in 3% BSA in TBST. Specific proteins were detected with the corresponding HRP conjugated secondary antibody using enhanced chemiluminescence (GE Lifesciences, Piscataway, NJ).
(§1) Because of ease of growth, PANC1 pancreatic cancer cells were used to test the activity of derivatives of VBT-5445 (FIG. 14). […] Using a doxycycline inducible Pim kinase vector in these tumor cells, this inhibition of phosphorylation was proportional to the level of Pim in these cells (FIG. 9). […] Inhibition of mTORC1 is known to stimulate the feedback activation of mTORC2 leading to AKT phosphorylation. […] The effect of these compounds on mTORC1 and 2 was still evident in PC3-LN4 cells that contained a knockout (KO) using CRISPR/CAS9 of either TSC2 or DEPDC5 (FIG. 12, lanes 4-9). TSC2 KO activated the Rheb GTPase while DEPDC5 KO activated the RAG GTPase both of which stimulate mTORC1 activity. Thus, GRG compounds were capable of inhibiting mTORC1 activity even when this kinase was highly activated.

[3] = tested on: PANC1 pancreatic cancer cells; assay: Growth inhibition of PANC1 pancreatic cancer cells
Protocol: Cell growth assay: Tumor cells were seeded into 48 well plates (1000 cells/well) and treated with varied agents. The Incucyte real-time imaging system (Incucyte) was used to measure cell proliferation using a non-label cell monolayer confluence approach. The images were captured every 12 h. Graphs were generated using an integrated confluence metric as an alternative for cell numbers. At the end of the study cell growth was visualized by crystal violet staining.
as §1

[4] = tested on: PANC1 cells; assay: Reverse-phase protein array (RPPA) of PANC1 cells, Table 3; settings: 6 h treatment, divided by zero-time value, average of triplicate
Protocol: To further examine how these compounds function to inhibit tumor growth, changes in both a wide variety of phosphoprotein and protein levels using reverse-phase protein arrays (RPPA) were evaluated. […] The values in the RPPA obtained at these two time points were divided by the value at time zero to allow an evaluation of the changes caused by each drug treatment.

How did the “Activity (inhibition of prostate cancer growth)” value [1] turn out when COc1ccc(CNCc2cc3ccc(Cl)cc3n(CCOc3ccccc3)c2=O)nc1 [GRG-1-27] was run?
Its value is 2 active compounds.

Which “Activity (inhibition of prostate cancer growth)” value [1] does the source give for O=c1c(CNCc2ccc(C(F)(F)F)cn2)cc2ccc(Cl)cc2n1CCOc1ccccc1 [GRG-1-28] here?
The value was 2 active compounds.

Cc1cccc(CNCc2cc3ccc(Cl)cc3n(CCOc3ccccc3)c2=O)n1 [GRG-1-31] was tested. Which “block of phosphorylation of mTORC substrates (AKT, 4E-BP1, S6)” value (“block” for short) [2] did it give?
Its value is “block the phosphorylation of mTORC substrates”.

And the “growth inhibitory activity against PANC1 pancreatic cancer cells” value (from here on “growth inhibitory activity”) [3]?
The value was “most active”.

Which “Activity (inhibition of prostate cancer growth)” value [1] does the source give for O=c1c(COCc2ccccc2)cc2ccc(Cl)cc2n1CCOc1ccccc1 [GRG-1-60] here?
The value was “Contributes to loss of activity”.

What about the “block” value [2] of the same molecule?
Its value is “not”.

And the “growth inhibitory activity” value [3]?
The value was “inactive”.

For CN(Cc1ccccn1)Cc1cc2ccc(Cl)cc2n(CCOc2ccccc2)c1=O [GRG-1-61], which “Activity (inhibition of prostate cancer growth)” value [1] is on record?
The value was “Reduces activity to some extent”.

How did the “Activity (inhibition of prostate cancer growth)” value [1] turn out when O=c1c(COCc2ccccn2)cc2ccc(Cl)cc2n1CCOc1ccccc1 [GRG-1-63] was run?
The value was “Contributes to loss of activity”.

For COc1ccc(OCCn2c(=O)c(CNCc3ccccn3)cc3ccc(Cl)cc32)cc1 [GRG-1-70], which “Activity (inhibition of prostate cancer growth)” value [1] is on record?
The value was “Brings activity, though 4-chloro”.

For O=C(NCc1cc2ccc(Cl)cc2n(CCOc2ccccc2)c1=O)c1ccccn1 [GRG-1-94, N-((7-chloro-2-oxo-1-(2-phenoxyethyl)-1,2-dihydroquinolin-3-yl)methyl) picolinamide], which “block” value [2] is on record?
Its value is “not”.

And the “growth inhibitory activity” value [3]?
The value was “inactive”.

For COc1ccnc(CNCc2cc3ccc(Cl)cc3n(CCOc3ccccc3)c2=O)c1 [GRG-1-95], which “Activity (inhibition of prostate cancer growth)” value [1] is on record?
The value was 6 active compounds.

For Cc1ccnc(CNCc2cc3ccc(Cl)cc3n(CCOc3ccccc3)c2=O)c1 [GRG-1-96], which “Activity (inhibition of prostate cancer growth)” value [1] is on record?
The value was 6 active compounds.

For O=c1c(CNCc2ccccn2)cc2ccc(Cl)cc2n1CCSc1ccccc1 [GRG-1-104, 7-chloro-1-(2-(phenylthio)ethyl)-3-(((pyridin-2-ylmethyl)amino)methyl)quinolin-2 (1H)-one], which “Activity (inhibition of prostate cancer growth)” value [1] is on record?
The value was “Active”.

And the “block” value [2]?
The value was “block the phosphorylation of mTORC substrates”.

And the “growth inhibitory activity” value [3]?
The value was “most active”.

For COc1ccc(OCCn2c(=O)c(CNCc3cc(C(F)(F)F)ccn3)cc3ccc(Cl)cc32)cc1 [GRG-1-127], which “Activity (inhibition of prostate cancer growth)” value [1] is on record?
Its value is “Brings activity, though 4-chloro”.

For COc1ccc(OCCn2c(=O)c(CNCc3cc(Br)ccn3)cc3ccc(Cl)cc32)cc1 [GRG-1-166], which “Activity (inhibition of prostate cancer growth)” value [1] is on record?
Its value is “Brings activity, though 4-chloro”.

With COc1ccc(OCCn2c(=O)c(CNCc3cc(Cl)ccn3)cc3ccc(Cl)cc32)cc1 [GRG-1-167] as the molecule, how does the “Activity (inhibition of prostate cancer growth)” value [1] read?
The value was “substitution decreases activity”.

With O=c1c(CNCc2cc(Br)ccn2)cc2ccc(N3CCOCC3)cc2n1CCOc1ccccc1 [GRG-02-24] as the molecule, how does the “Activity (inhibition of prostate cancer growth)” value [1] read?
Its value is “Contributes to loss of activity”.

Which “Activity (inhibition of prostate cancer growth)” value [1] does the source give for O=c1c(CNCc2cccc(Br)n2)cc2ccc(Cl)cc2n1CCOc1ccccc1 [ZH-2-44] here?
The value was 1 active compound (methoxy).

O=c1c(CNCc2ncccc2F)cc2ccc(Cl)cc2n1CCOc1ccccc1 [ZH-2-50] was tested. Which “Activity (inhibition of prostate cancer growth)” value [1] did it give?
The value was “Less active”.

CC(C)n1nc(-c2cc3cc(O)ccc3[nH]2)c2c(N)ncnc21 [pp242, reference compound] was tested. Which “4EBP1S65, RPPA value after treatment / zero-time value” [4] did it give?
Its value is 0.22.

What about the “4EBP1T70, RPPA value after treatment / zero-time value” [4] of the same molecule?
The value was 0.32.

And the “ATMS1981, RPPA value after treatment / zero-time value” [4]?
The value was 0.46.

What about the “CICaspase3D175, RPPA value after treatment / zero-time value” [4] of the same molecule?
Its value is 0.7.

What about the “CofilinS3, RPPA value after treatment / zero-time value” [4] of the same molecule?
The value was 0.6.

And the “CrkIIY221, RPPA value after treatment / zero-time value” [4]?
Its value is 1.57.

And the “ERKT202_Y204, RPPA value after treatment / zero-time value” [4]?
Its value is 2.04.

What about the “FAKY576_577, RPPA value after treatment / zero-time value” [4] of the same molecule?
The value was 0.81.

And the “FKHR-FOX01S256, RPPA value after treatment / zero-time value” [4]?
The value was 1.03.

And the “GSK3a_bS21_9, RPPA value after treatment / zero-time value” [4]?
Its value is 1.09.

What about the “HistoneH2AXS139, RPPA value after treatment / zero-time value” [4] of the same molecule?
The value was 1.19.

What about the “HistoneH3S10, RPPA value after treatment / zero-time value” [4] of the same molecule?
The value was 0.64.

And the “IL-1bcleavedD116, RPPA value after treatment / zero-time value” [4]?
The value was 0.46.

What about the “Jak1Y1022_1023, RPPA value after treatment / zero-time value” [4] of the same molecule?
Its value is 0.71.

What about the “MAPKpTEpY, RPPA value after treatment / zero-time value” [4] of the same molecule?
Its value is 0.64.

What about the “PDGFRbY751, RPPA value after treatment / zero-time value” [4] of the same molecule?
The value was 0.67.

What about the “PP1aT320, RPPA value after treatment / zero-time value” [4] of the same molecule?
The value was 0.61.

What about the “PaxillinY118, RPPA value after treatment / zero-time value” [4] of the same molecule?
The value was 0.9.

And the “RetY905, RPPA value after treatment / zero-time value” [4]?
Its value is 0.25.

And the “S6RibosomalPS235_236, RPPA value after treatment / zero-time value” [4]?
Its value is 0.34.

And the “S6RibosomalProtein S240_244, RPPA value after treatment / zero-time value” [4]?
Its value is 0.66.

And the “SAPK_JNKT183_Y185, RPPA value after treatment / zero-time value” [4]?
Its value is 1.07.

What about the “Stat2Y690, RPPA value after treatment / zero-time value” [4] of the same molecule?
The value was 0.76.

What about the “Stat3Y705, RPPA value after treatment / zero-time value” [4] of the same molecule?
Its value is 0.51.

And the “Tyk2Y1054_1055, RPPA value after treatment / zero-time value” [4]?
Its value is 0.51.

What about the “VEGFR2Y1175, RPPA value after treatment / zero-time value” [4] of the same molecule?
Its value is 0.34.

What about the “YAPS127, RPPA value after treatment / zero-time value” [4] of the same molecule?
The value was 0.76.

What about the “cAbIY245, RPPA value after treatment / zero-time value” [4] of the same molecule?
The value was 1.54.

What about the “cKitY703, RPPA value after treatment / zero-time value” [4] of the same molecule?
The value was 1.09.

What about the “p38MAPKT180_Y182, RPPA value after treatment / zero-time value” [4] of the same molecule?
Its value is 0.59.

And the “p70S6KS371, RPPA value after treatment / zero-time value” [4]?
Its value is 0.39.

And the “p70S6KT389, RPPA value after treatment / zero-time value” [4]?
Its value is 0.29.

And the “p90RSKS380, RPPA value after treatment / zero-time value” [4]?
The value was 0.91.
